From patent publication US5482945A, “Innovative technique for immunosuppression involving administration of rapamycin loaded formed blood elements” (American Home Products Corporation, priority 1992, dated 1996)
Where two headings read alike, the source gives them in different places.

How the values were obtained:
red blood cells [1] = conditions: cited from earlier work
red blood cells [2] = conditions: cited from earlier work; remark: listed apart in the source
[3] = system: FK-506 binding protein (FKBP); conditions: cited from earlier work
[4] = system: peripheral blood mononuclear cells and erythrocytes; conditions: cited from earlier work
T-lymphocytes = conditions: cited from earlier work
[5] = system: transplanted tissue or organ; conditions: parenteral administration to donor before transplant; cited from earlier work
[6] = Equilibrium of rapamycin between formed blood elements (FBE), whole blood and plasma in rat blood; type: in vitro ADME; conditions: for Kp: formed blood elements, read-out: FBE to plasma ratio
Experimental: In human blood, erythrocytes comprise about 85 to 90 percent of the formed blood elements (microscopically visible). Human whole blood is comprised of about 46% formed blood elements and 54% plasma. Equilibrium of rapamycin between the rapamycin-loaded formed blood elements (FBE) and the plasma is quickly established and is seen to be species dependent. In rat blood containing rapamycin at a concentration of 38 ng/ml, the whole blood and FBE to plasma ratios were 1.3 and 1.7 respectively and at a concentration of 200 ng/ml the ratios were 0.8 and 0.5 respectively.

[7] = Equilibrium of rapamycin between formed blood elements (FBE), whole blood and plasma in human blood; type: in vitro ADME; conditions: for Kp: formed blood elements, read-out: FBE to plasma ratio
Experimental: (§1) In human blood at rapamycin concentrations between 76 and 189 ng/ml, the whole blood and FBE to plasma ratios after 30 minutes incubation at 37° C. were 12±2 and 23.7±3.9 respectively. Similarly, at a concentration of 482 ng/ml, the ratios were 1.1 and 1.3 respectively. The ratios of whole blood to plasma concentrations in monkeys receiving rapamycin was 10±6 and in humans the ratio was 12±2, and indication that a species difference exists between primates and other mammals.

[8] = Whole blood to plasma concentration ratio in monkeys receiving rapamycin; type: in vivo; conditions: monkey, read-out: ratio of whole blood to plasma concentrations
Experimental: as §1

[9] = Whole blood to plasma concentration ratio in humans receiving rapamycin; type: in vivo; conditions: human, read-out: ratio of whole blood to plasma concentrations
Experimental: as §1

FKBP = assay: Binding of rapamycin to FKBP in formed blood elements (erythrocytes)
erythrocytes = assay: Hemolysis by rapamycin; type: cell-based
graft rejection = conditions: donor pretreatment intravenously, rats; cited from earlier work
[10] = system: experimental allergic encephalomyolitis; conditions: rats; cited from earlier work
adjuvant arthritis = conditions: rats; cited from earlier work
[11] = system: humoral (IgE-like) antibodies; conditions: rats, albumin allergic challenge; cited from earlier work
mouse T-cells = conditions: combination with Cyclosporin A; ionomycin + PMA stimulation; cited from earlier work
[12] = system: restenosis (smooth muscle cell proliferation and internal thickening following vascular injury); conditions: cited from earlier work
[13] = system: lymphatic leukemia, colon and mammary cancers, melanocarcinoma and ependymoblastoma; conditions: cited from earlier work
transplant rejection = conditions: cited from earlier work
[14] = rapamycin 76 to 189 ng/ml, 30 minutes incubation at 37° C.

Molecule: C[C@@H]1[C@H](O)[C@@H](C)/C=C/C=C/C=C/C=C/C=C/C=C/C=C/[C@H](O[C@@H]2O[C@H](C)[C@@H](O)[C@H](N)[C@@H]2O)C[C@@H]2O[C@](O)(C[C@@H](O)C[C@@H](O)[C@H](O)CC[C@@H](O)C[C@@H](O)CC(=O)O[C@H]1C)C[C@H](O)[C@H]2C(=O)O [Amphotericin B]
- effect on sterols and cell membranes (red blood cells [1]): binds to sterols and perforates cell membranes

Molecule: COc1cccc2c1C(=O)c1c(O)c3c(c(O)c1C2=O)C[C@@](O)(C(C)=O)C[C@@H]3O[C@H]1C[C@H](N)[C@H](O)[C@H](C)O1 [Daunomycin]
- binding to red blood cells (red blood cells [2]; red blood cells first treated with Amphotericin B): will bind daunomycin
- binding to red blood cells (red blood cells [2]; untreated red blood cells): will not bind to red blood cells

Molecule: C=CC[C@@H]1/C=C(\C)C[C@H](C)C[C@H](OC)[C@H]2O[C@@](O)(C(=O)C(=O)N3CCCC[C@H]3C(=O)O[C@H](/C(C)=C/[C@@H]3CC[C@@H](O)[C@H](OC)C3)[C@H](C)[C@@H](O)CC1=O)[C@H](C)C[C@@H]2OC [FK-506]
- binding with FKBP in the erythrocytes [3]: bind reversibly
- absorption and retention by peripheral blood mononuclear cells and erythrocytes [4]: absorbed and retained
- activation of T-lymphocytes (T-lymphocytes): inhibits the activation of T-lymphocytes
- rejection of the transplanted tissue or organ [5]: reduce rejection of the transplanted tissue or organ

Molecule: O=P1(N(CCCl)CCCl)NCCCO1 (centres unmarked) [cyclophosphamide]
- rejection of the transplanted tissue or organ [5]: reduce rejection of the transplanted tissue or organ

Molecule: CO[C@H]1C[C@@H]2CC[C@@H](C)[C@@](O)(O2)C(=O)C(=O)N2CCCC[C@H]2C(=O)O[C@H]([C@H](C)C[C@@H]2CC[C@@H](O)[C@H](OC)C2)CC(=O)[C@H](C)/C=C(\C)[C@@H](O)[C@@H](OC)C(=O)[C@H](C)C[C@H](C)/C=C/C=C/C=C/1C [rapamycin]
- blood plasma ratio ([6]; rapamycin 38 ng/ml): 1.3
- blood plasma ratio ([6]; rapamycin 200 ng/ml): 0.8
- Kp ([6]; rapamycin 38 ng/ml): 1.7
- Kp ([6]; rapamycin 200 ng/ml): 0.5
- blood plasma ratio ([7]; rapamycin 482 ng/ml): 1.1
- blood plasma ratio [7, 14]: 12 ± 2
- Kp ([7]; rapamycin 482 ng/ml): 1.3
- Kp [7, 14]: 23.7 ± 3.9
- blood plasma ratio [8]: 10 ± 6
- blood plasma ratio [9]: 12 ± 2
- binding with FKBP in formed blood elements (erythrocytes) (FKBP): bind reversibly with the binding protein FKBP
- hemolysis (erythrocytes): does not cause hemolysis
- rejection of the transplanted tissue or organ [5]: reduce rejection of the transplanted tissue or organ
- graft rejection (graft rejection): reduce graft rejection
- immune response in experimental allergic encephalomyolitis [10]: inhibits the immune response
- immune response in adjuvant arthritis (adjuvant arthritis): inhibits the immune response
- humoral (IgE-like) antibodies [11]: prevents humoral (IgE-like) antibodies
- suppressive activity of Cyclosporin A in T-cell proliferation, IL-2 production and IL-2R expression (mouse T-cells): potentiates the suppressive activity of Cyclosporin A
- restenosis [12]: inhibits restenosis
- antitumor activity [13]: antitumor activity
- transplant rejection (transplant rejection): inhibition of transplant rejection

Molecule: CC1\C=C/C=C\C=C\C=C\C=C\C=C\C=C\C(OC2OC(C)C(O)C(N)C2O)CC2OC(O)(CC(O)CC(O)CC(O)CC(O)CC(=O)CC(O)CC(=O)OC1C(C)CCC(O)CC(=O)c1ccc(N)cc1)CC(O)C2C(=O)O (centres unmarked) [vacidin A]
- binding with red blood cells and hemolysis (red blood cells [1]): bind with red blood cells and cause hemolysis to occur

Molecule: cyclosporin A
- rejection of the transplanted tissue or organ [5]: reduce rejection of the transplanted tissue or organ

Molecule: methylprednisone
- rejection of the transplanted tissue or organ [5]: reduce rejection of the transplanted tissue or organ
